In paper PMC7144195, “Synthesis, antitumor activity, and molecular docking study of 2-cyclopentyloxyanisole derivatives: mechanistic study of enzyme inhibition” (Journal of Enzyme Inhibition and Medicinal Chemistry, 2020) one finds IC50 and melting point data, which are given here for 10 compounds.

Molecules are shown by their SMILES.

For one data set, the system named is PC3 cell line. The data set can be described thus: In vitro antitumor MTT assay, PC3. In kind it is cell-based. As to conditions: Homo sapiens, PC-3; read-out: IC50 (µM) PC3.
Another data set deals with MCF-7 cell line. The data set can be described thus: In vitro antitumor MTT assay, MCF-7. The note with it: Homo sapiens, MCF7; read-out: IC50 (µM) MCF-7. It counts as cell-based. In general terms: Tetrazolium assays rely on reduction of a dye to a coloured formazan, in cell work by metabolically active cells.
A further data set deals with HePG2 cell line. In words: In vitro antitumor MTT assay, HePG2. In kind it is cell-based. As to conditions: Homo sapiens, HepG2; read-out: IC50 (µM) HePG2. The procedure:
(§1) The antitumor activity was performed by using the tetrazolium salt 3-(4,5-dimethyl-2-thiazolyl)-2,5-diphenyl-2H-tetrazolium bromide (MTT) assay in accordance with an established method.
(§2) Compounds 3a–c, 4a,b, 5a,b, 6a,b, 7a–e, 8, 9a–c, 10, 11, 12a–c, 13, and 14 were screened for their in vitro antitumor activity by using the standard 3-(4,5-dimethylthiazol-2-yl)-2,5-diphenyltetrazolium bromide (MTT) assay against five human cancers: HePG2, HCT-116, MCF-7, PC3, and HeLa cell lines. […].

The next data set has as its system HCT-116 cell line. The data set can be described thus: In vitro antitumor MTT assay, HCT-116. It counts as cell-based. As to conditions: Homo sapiens, HCT-116; read-out: IC50 (µM) HCT-116.
In data set [1] the test system is HePG2, HCT-116, MCF-7, PC3, and HeLa cell lines. In words: In vitro antitumor MTT assay, panel of five human cancer cell lines (text summaries). In kind it is cell-based. The note with it: Homo sapiens, range over (all or some of) HePG2, HCT-116, MCF-7, PC3, HeLa; read-out: IC50, antitumor activity, range over the tested cancer cell lines. The procedure: as §1, §2

For the next data set, the system named is HeLa cell line. The data set can be described thus: In vitro antitumor MTT assay, HeLa. The note with it: Homo sapiens; read-out: IC50 (µM) HeLa. It counts as cell-based. The procedure: as §1, §2

Experimental for HCT-116 cell line: (§3) The antitumor activity was performed by using the tetrazolium salt 3-(4,5-dimethyl-2-thiazolyl)-2,5-diphenyl-2H-tetrazolium bromide (MTT) assay in accordance with an established method[39].
Experimental for MCF-7 cell line: as §3
Experimental for PC3 cell line: as §3

Consider `CN(C)C/C=C/C(=O)Nc1cc2c(Nc3ccc(F)c(Cl)c3)ncnc2cc1O[C@H]1CCOC1` [Afatinib, afatinib, reference compound], for which the IC50 – broadly, the concentration at which inhibition is half-maximal – in the data set with PC3 cell line is 7.7 ± 0.57 µM; in the data set with MCF-7 cell line, 7.1 ± 0.49 µM; with HePG2 cell line, 5.4 ± 0.25 µM; in the data set on HCT-116 cell line it was 11.4 ± 1.26 µM; in data set [1], 5.4 to 11.4 µM; in the data set with HeLa cell line, 6.2 ± 0.67 µM.
Take `COc1ccc(C=C2CCCC2=O)cc1OC1CCCC1` [Compound 3a, 2-(3-(Cyclopentyloxy)-4-methoxybenzylidene)cyclopentanone]: the IC50 in the data set with PC3 cell line is 51.4 ± 3 µM; in the data set on MCF-7 cell line it was 56.1 ± 2.6 µM; in the data set with HePG2 cell line, 96 ± 5.2 µM; with HCT-116 cell line, more than 100 µM; with HeLa cell line, 59.1 ± 3.8 µM.
As to `COc1ccc(C=C2CCCCC2=O)cc1OC1CCCC1` [Compound 3b, 2-(3-(Cyclopentyloxy)-4-methoxybenzylidene)cyclohexanone], the melting point (in general, the temperature, or range, at which the solid turns liquid) is 245 to 247 °C. For the same compound, in the data set on PC3 cell line, the IC50 turned out to be 19.3 ± 1.8 µM. Besides, the IC50 with MCF-7 cell line was 23.8 ± 1.5 µM. The IC50 in the data set on HePG2 cell line was determined as 53.9 ± 3.7 µM. Moreover, the IC50 in the data set with HCT-116 cell line was found to be 80.6 ± 3.9 µM. Besides, in the data set with HeLa cell line, the IC50 came out at 26.1 ± 1.9 µM.
Regarding `COc1ccc(C=C2CCCCCC2=O)cc1OC1CCCC1` [Compound 3c, 2-(3-(Cyclopentyloxy)-4-methoxybenzylidene)cycloheptanone], the melting point is 250 to 252 °C. In addition, the IC50 in the data set with PC3 cell line is more than 100 µM. In the data set with MCF-7 cell line, the IC50 is more than 100 µM. For the same compound, the IC50 in the data set on HePG2 cell line came to 86.9 ± 4.5 µM. The IC50 in the data set with HCT-116 cell line amounted to 93.5 ± 5.1 µM. Besides, the IC50 in the data set with HeLa cell line turned out to be 81.7 ± 4.7 µM.
Regarding `COc1ccc(C2NC(=S)NC3=C2CCCC3)cc1OC1CCCC1` (centres unmarked) [Compound 5a, 4-(3-(Cyclopentyloxy)-4-methoxyphenyl)-3,4,5,6,7,8-hexahydroquinazoline-2(1H)-thione], the melting point was in the range of 199 to 201 °C. The half-maximal inhibitory concentration (IC50) with PC3 cell line turned out to be 79 ± 4.1 µM. For the same compound, the IC50 with MCF-7 cell line was determined as 92.4 ± 5.2 µM. The IC50 in the data set with HePG2 cell line came out at 73.4 ± 3.7 µM. Further, in the data set on HCT-116 cell line, the IC50 was 66.5 ± 3.8 µM. In addition, the IC50 with HeLa cell line is 84.3 ± 4.6 µM.
As to `COc1ccc(C2NC(=S)NC3=C2CCCCC3)cc1OC1CCCC1` (centres unmarked) [Compound 5b, 4-(3-(Cyclopentyloxy)-4-methoxyphenyl)-1,3,4,5,6,7,8,9-octahydro-2H-cyclohepta[d]pyrimidine-2-thione], the IC50 in the data set on PC3 cell line worked out at 55.2 ± 3.1 µM; in the data set with MCF-7 cell line it was 81.2 ± 4.3 µM; with HePG2 cell line it was 59.1 ± 3.5 µM; in the data set with HCT-116 cell line it was 61.1 ± 3.6 µM; in the data set with HeLa cell line it was 46.3 ± 3 µM.
With `COc1ccc(-c2cc(-c3ccccc3)[nH]c(=O)c2C#N)cc1OC1CCCC1` [Compound 12a, 4-(3-(Cyclopentyloxy)-4-methoxyphenyl)-2-oxo-6-phenyl-1,2-dihydropyridine-3-carbonitrile], the melting point was more than 300 °C. Besides, in the data set with PC3 cell line, the IC50 amounted to 79.8 ± 4 µM. Moreover, the IC50 in the data set on MCF-7 cell line is 71.6 ± 3.9 µM. Also, the IC50 in the data set on HePG2 cell line was 45.2 ± 3.4 µM. In addition, the IC50 with HCT-116 cell line amounted to 76 ± 3.6 µM. Further, in the data set with HeLa cell line, the IC50 was determined as 65.7 ± 4.1 µM.
For the compound `COc1ccc(-c2cc(-c3ccc(C)cc3)[nH]c(=O)c2C#N)cc1OC1CCCC1` [Compound 12b, 4-(3-(cyclopentyloxy)-4-methoxyphenyl)-2-oxo-6-(p-tolyl)-1,2-dihydropyridine-3-carbonitrile], the melting point was more than 300 °C. In addition, the IC50 in the data set on PC3 cell line was 61.5 ± 3.3 µM. The half-inhibitory concentration (IC50) in the data set on MCF-7 cell line turned out to be 58.3 ± 2.7 µM. In addition, in the data set on HePG2 cell line, the 50% inhibitory concentration (IC50) came out at 38.1 ± 2.8 µM. Also, the IC50 in the data set on HCT-116 cell line came to 67.7 ± 3.5 µM. In the data set with HeLa cell line, the half-maximal inhibitory concentration (IC50) stood at 45.7 ± 3.2 µM.
Compound `COc1ccc(-c2cc(-c3ccc(Cl)c(Cl)c3)[nH]c(=O)c2C#N)cc1OC1CCCC1` [Compound 12c, 4-(3-(Cyclopentyloxy)-4-methoxyphenyl)-6-(3,4-dichlorophenyl)-2-oxo-1,2-dihydropyridine-3-carbonitrile] yielded a melting point of more than 300 °C. Further, the IC50 in the data set on PC3 cell line was found to be 73.5 ± 3.8 µM. Besides, in the data set on MCF-7 cell line, the IC50 stood at 66.1 ± 3.7 µM. Further, the IC50 with HePG2 cell line turned out to be 59.6 ± 4 µM. Also, the IC50 in the data set on HCT-116 cell line stood at 83.4 ± 4.3 µM. For the same compound, the IC50 in the data set on HeLa cell line was found to be 62.8 ± 3.9 µM.
On to `COc1cccc2c1C(=O)c1c(O)c3c(c(O)c1C2=O)C[C@@](O)(C(=O)CO)C[C@@H]3O[C@H]1C[C@H](N)[C@H](O)[C@H](C)O1` [DOX, doxorubicin, reference compound], for which the IC50 in data set [1] fell in the range of 4.17 to 8.87 µM.
